Results published in patent publication EP4786485A1, “STRAIGHT CHAIN PEPTIDE COMPOUND AND USE THEREOF” (Shenzhen Zhongge Biological Technology Co., Ltd., priority 2023, dated 2026).
Where a SMILES comes first, the peptide text is derived from it. [ ]: non-standard residue; d: D form. The star is where a group is joined. Biotin = O=C1N[C@H]2[C@H](CS[C@H]2CCCCC(=O)*)N1; Lys(Me3) = C[N+](C)(C)CCCC[C@H](N)C(=O)O; Phe(4-Me) = Cc1ccc(C[C@H](N)C(=O)O)cc1; Palmitoyl = CCCCCCCCCCCCCCCC(=O)*; Hyp = O=C(O)[C@@H]1C[C@@H](O)CN1

What was measured:
Format in all cases: cell-based, Human
[1] = system: Collagen I (type I collagen); test: ELISA: effect of increasing the content of Collagen I in fibroblasts; design: Effect of increasing the content of Collagen I in the fibroblasts: unit not given here; settings: 1 µM, 24 h; for Effect of increasing the content of Collagen I in the fibroblasts: human-derived fibroblasts, ELISA, blank control BC = 35.6; for increase in the content of type I collagen (Collagen I): in words, compared to the BC, fibroblasts
Protocol: (§1) B. Effects of increasing the contents of Collagen I (type I collagen), hyaluronic acid (HA), and Elastin (ELN) in fibroblasts
(§2) Test materials: Human-derived fibroblasts (Guangdong BioCell Biotechnology Co., Ltd., Lot No. Fb20081902), DMEM culture medium (Gibco, 23042301, expiration date 230522), PBS (Solarbio, P1010), TGF-β1 (Peprotech, 230504), Collagen I ELISA Kit (Cusabio, B21025824), Elastin ELISA Kit (Abcam, GR3446070-2), HA ELISA Kit (RD, P325066), CO2 incubator (Thermo, 150I), super-clean bench (AIRTECH, SW-CJ-1F), and microplate reader (BioTek, Epoch).
(§3) Test methods: • 1) Inoculation: After cell resuscitation, the cells were inoculated into 6-well plates when the plating rate reached around 60%, and were incubated overnight in an incubator (37°C, 5% CO2). • 2) Formulation of solutions: The linear peptide compounds in the sample groups, and PC2 (Biotinoyl-GHK, [drawing 69] ) and PC3 ( [drawing 70] ) in the positive control group were all at the concentration of 1 µM, and the test substance working solutions were formulated. • 3) Administration: When the cell plating rate in the 6-well plates reached 40% to 60%, administration was performed at 2 mL per well. Three duplicate wells were set for each group. Incubation was performed in an incubator (37°C, 5% CO2) for 24 h. • 4) ELISA assay: The ELISA assays were performed according to the instructions of the respective ELISA kits, with the detection indicators being effect of increasing the content of Collagen I in the fibroblasts, effect of increasing the content of HA in the fibroblasts, and effect of increasing the content of Elastin in the fibroblasts, respectively.

hyaluronic acid (HA) = test: ELISA: effect of increasing the content of HA in fibroblasts; design: Effect of increasing the content of HA in the fibroblasts: unit not given here; settings: 1 µM, 24 h; for Effect of increasing the content of HA in the fibroblasts: human-derived fibroblasts, ELISA, blank control BC = 1402.44; for increase in the content of hyaluronic acid (HA): in words, compared to the BC, fibroblasts
Protocol: as §1, §2, §3

Elastin (ELN) = test: ELISA: effect of increasing the content of Elastin in fibroblasts; design: Effect of increasing the content of Elastin in the fibroblasts: unit not given here; settings: 1 µM; for Effect of increasing the content of Elastin in the fibroblasts: 24 h incubation, ELISA, blank control (BC) 756.52; for increase in the content of Elastin: in words, compared to the BC, 24 h, fibroblasts
Protocol: as §1, §2, §3

Row | SMILES | Effect of increasing the content of Collagen I in the fibroblasts [1] | increase in the content of type I collagen (Collagen I) [1] | Effect of increasing the content of HA in the fibroblasts (hyaluronic acid (HA)) | increase in the content of hyaluronic acid (HA) (hyaluronic acid (HA)) | Effect of increasing the content of Elastin in the fibroblasts (Elastin (ELN)) | increase in the content of Elastin (Elastin (ELN))
1 | CNC(=O)[C@H](Cc1ccc(C)cc1)NC(=O)CNC(=O)[C@H](CCCCN)NC(=O)[C@H](Cc1c[nH]cn1)NC(=O)CNC(=O)[C@H](CCCC[N+](C)(C)C)NC(C)=O [compound 349] (Ac-[Lys(Me3)]GHKG[Phe(4-Me)]-NHMe) | 90.16 | significant increase | 1794.21 | significant increase | 836 | significant increase
2 | CNC(=O)[C@H](CCCC[N+](C)(C)C)NC(=O)CNC(=O)[C@H](Cc1c[nH]cn1)NC(=O)[C@H](CCCCN)NC(=O)[C@H](Cc1ccc(C)cc1)NC(C)=O [compound 358] (Ac-[Phe(4-Me)]KHG[Lys(Me3)]-NHMe) | 81.27 | significant increase | 1913.78 | significant increase | 1133.42 | significant increase
3 | CNC(=O)[C@H](Cc1ccc(C)cc1)NC(=O)[C@H](CCCCNC(=O)[C@@H]1C[C@@H](O)CN1)NC(=O)[C@H](Cc1c[nH]cn1)NC(=O)CNC(=O)[C@H](CCCC[N+](C)(C)C)NC(C)=O [compound 373] (Ac-[Lys(Me3)]GHK(Hyp)[Phe(4-Me)]-NHMe) | 57.84 | significant increase | 2472.81 | significant increase | 843.14 | significant increase
4 | CCCCCCCCCCCCCCCC(=O)N[C@@H](CCCC[N+](C)(C)C)C(=O)NCC(=O)N[C@@H](Cc1c[nH]cn1)C(=O)N[C@@H](CCCCNC(=O)[C@@H]1CCCN1)C(=O)N[C@@H](Cc1ccc(C)cc1)C(=O)O [compound 397] (Palmitoyl-[Lys(Me3)]GHK(Pro)[Phe(4-Me)]-OH) | 54.45 | significant increase | 1832.87 | significant increase | 1115.1 | significant increase
5 | CCCCCCCCCCCCCCCC(=O)N[C@@H](CCCC[N+](C)(C)C)C(=O)NCC(=O)N[C@@H](Cc1c[nH]cn1)C(=O)N[C@@H](CCCCNC(=O)[C@@H]1C[C@@H](O)CN1)C(=O)N[C@@H](Cc1ccc(C)cc1)C(=O)O [compound 403] (Palmitoyl-[Lys(Me3)]GHK(Hyp)[Phe(4-Me)]-OH) | 97.51 | significant increase | 2688.75 | significant increase | 928.61 | significant increase
6 | Cc1ccc(C[C@H](NC(=O)[C@H](CCCCNC(=O)[C@@H]2C[C@@H](O)CN2)NC(=O)[C@H](Cc2c[nH]cn2)NC(=O)CNC(=O)[C@H](CCCC[N+](C)(C)C)NC(=O)CCCC[C@@H]2SC[C@@H]3NC(=O)N[C@@H]32)C(N)=O)cc1 [compound 406] (Biotin-[Lys(Me3)]GHK(Hyp)[Phe(4-Me)]-NH2) | 88.9 | significant increase | 1473.32 | significant increase | 947.33 | significant increase
7 | CCCCCCCCCCCCCCCC(=O)N[C@@H](Cc1ccc(C)cc1)C(=O)N[C@@H](C)C(=O)N[C@@H](CCCCN)C(=O)N[C@@H](Cc1c[nH]cn1)C(=O)NCC(=O)N[C@@H](CCCC[N+](C)(C)C)C(=O)O [compound 415] (Palmitoyl-[Phe(4-Me)]AKHG[Lys(Me3)]-OH) | 85.52 | significant increase | 1570.27 | significant increase | 1010.76 | significant increase
8 | CCCCCCCCCCCCCCCC(=O)N[C@@H](Cc1ccc(OCC)cc1)C(=O)N[C@@H](C)C(=O)N[C@@H](CCCCN)C(=O)N[C@@H](Cc1c[nH]cn1)C(=O)NCC(=O)N[C@@H](CCCC[N+](C)(C)C)C(=O)O [compound 417] (Palmitoyl-Y(Et)AKHG[Lys(Me3)]-OH) | 92.88 | significant increase | 1938.51 | significant increase | 861.32 | significant increase
